Experimental data reported in US6900239B2, “Tumor chemopotentiation using isocoumarin derivatives” (ILWZ ILEX Products, Inc., priority 2000, dated 2005).

How the values were obtained:
colon 26 adenocarcinoma = test: Combination with cyclophosphamide, survival; type: in vivo, BALB/c mice
Experimental: To determine the effect on tumor growth of NM-3 treatment combined with simultaneous cyclophosphamide treatment, colon 26 adenocarcinoma cells (5×10^4 cells per mouse) were subcutaneously transplanted into BALB/c mice (female, 7 weeks old) in the inguinal area. NM-3 was continuously orally administered from day 1 to day 72 after the transplantation except on day 14 when cyclophosphamide was dosed.

Seg-1 tumors = test: NM-3 and ionizing radiation, tumor growth; type: in vivo, C57BL/6 nude mice
Experimental: The effects of NM-3 and IR on tumor growth were assessed in Lewis Lung Carcinoma (LLC), Seg-1, and SQ-20B tumors implanted in C57BL/6 nude mice.
Seg-1 tumors in the control group and the NM-3-treated group grew to 6.30±0.42 and 6.74±0.62 times original volume by day 15 at which time the animals were sacrificed due to tumor burden. Tumors in the IR (4 doses of 5 Gy) group initially regressed (0.64±0.03 times original volume, day 7) and then regrew (1.83±0.11, day 15). […] (FIG. 8B).

[1] = system: MDAMB-435 human breast tumor xenografts; test: MDAMB-435 orthotopic model, NM-3 with 5-Fluorouracil; type: in vivo, female NCRNU nude mice; settings: NM-3 100 mg/kg/day i.p. alone
Experimental: In order to evaluate the antitumor activity of NM-3 in combination with 5-Fluorouracil (5-FU) vs. MDAMB-435 human breast tumor xenografts, female NCRNU nude mice were implanted with MDAMB-435 cells into the subaxillary mammary fat pad. When the tumors were between 50 and 80 mm^3, NM-3 was administered via intraperitoneal (i.p.) injection daily at 10 and 100 mg/kg; 5-FU was administered via i.p. injection on days 0 and 14, at 10 mg/kg. Mice were weighed twice weekly, and tumor measurements were taken by calipers twice weekly. Mice were euthenized at the end of the treatment period. Upon termination, the mice were weighed, sacrificed and their tumors were excised.
Initial studies were conducted with 5-FU to determine the optimal dose of this agent when administered in combination with NM-3.

[2] = system: MM1.S human multiple myeloma cells; test: Cell cycle profile (PI staining, sub-G1 cells); type: cell-based
Experimental: Apoptosis was determined by staining cells with annexin V-FITC and propidium iodide (PI). Cells were treated with DEX in the presence or absence of NM-3. NM-3 was added 2 hours before the addition of DEX. After 24 hours of DEX exposure, cells were washed twice with cold PBS, resuspended in binding buffer (10 mM HEPES/NaOH (pH 7.4), 140 mM NaCl, 2.5 mM CaCl2), and then stained with annexin V-FITC (Clontech Laboratories) and PI (Boehringer-Manheim). Apoptosis was analyzed by using a flow cytometer (EPICS XL-MCL, Coulter Corp). The cultured cells were also subjected to cell cycle analysis. Briefly, cells were washed twice with PBS and fixed with 70% ethanol. Cells were then washed with 0.5 ml PBS and 1.0 ml phosphate-citric acid buffer (0.2 M Na2HPO4 and 0.1 M citric acid (pH 7.8)), treated with 200 μg/ml RNase for 15 min at 37° C., and stained with 50 μg/ml PI for 30 min at room temperature in the dark. Cells were filtered through 35-μm diameter mesh to remove clumps. Nuclear staining was analyzed by a flow cytometer. Cells with fractional DNA content located on DNA frequency histograms to the left of the G1 peak (sub-G1 cells) were identified as apoptotic cells.

LLC tumor = test: LLC tumors, second experiment, complete cures; type: in vivo; settings: NM-3 25 μg/kg daily over the first four days + 20 Gy X-irradiation on days 2 and 4
Experimental: In a second similar experiment, X-ray treatment and X-ray treatment combined with NM-3 treatment were again compared for their relative abilities to inhibit LLC tumor growth. However, the treatment period was extended to determine whether either treatment regimen was able to initiate complete tumor cures. Animals were injected with […] initially and starting tumor volumes were approximately 500 mm^3. Tumors were irradiated on days 2 and 4 with 20 Gy X-irradiation. NM-3 was administered at 25 μg/kg daily over the first four days. The tumors of both groups increased slightly in size following initiation of treatment and then began to decrease after several days. Tumors in the X-ray only group began to increase steadily in size after the 10th day of continuous treatment. In contrast, tumors in the NM-3+X-ray group continued to decrease in size following the initial growth phase. Ultimately, 9 of 10 animals receiving NM-3+X-ray treatment experienced a complete cure while only 3 of 10 animals were cured by the X-ray treatment alone.

[3] = system: MDAMB-435 human breast tumor xenografts; test: MDAMB-435 orthotopic model, NM-3 with paclitaxel, second study (100 mm^3) and delivery routes; type: in vivo, female NCRNU nude mice
Experimental: In order to determine the effect of the combination of NM-3 with the cytotoxic drug, paclitaxel on human breast tumor xenografts, female NCRNU nude mice were implanted with MDAMB-435 cells into the subaxillary mammary fat pad. NM-3 was administered via intraperitoneal (i.p.) injection daily at doses ranging from 10-100 mg/kg; paclitaxel was administered via i.p. injection every 7 days, starting on day 0, at 10 mg/kg.
In a second study, treatment was initiated when tumor volumes reached 100 mm^3. Paclitaxel was administered at the fixed dose of 12.5 mg/kg, q7d and NM-3 was dosed at 10 and 100 mg/kg, i.p. daily for 28 days.
A comparison was also made between different delivery routes of NM-3 in the combination studies. NM-3 given i.p. daily, bid, and continuously using Alzet mini osmotic pumps in combination with paclitaxel was evaluated for effectiveness in reducing tumor growth.

[4] = system: MDAMB-435 human breast tumor xenografts; test: MDAMB-435 orthotopic model, NM-3 with paclitaxel, first study; type: in vivo, female NCRNU nude mice; settings: NM-3 100 mg/kg I.P. daily alone
Source text: In order to determine the effect of the combination of NM-3 with the cytotoxic drug, paclitaxel on human breast tumor xenografts, female NCRNU nude mice were implanted with MDAMB-435 cells into the subaxillary mammary fat pad. […]

[5] = NM-3 1 mg/kg p.o. days 1-13, 15-72 alone
[6] = NM-3 5 mg/kg p.o. days 1-13, 15-72 alone
[7] = NM-3 combined with IR (4 doses of 5 Gy)

COc1cc(O)c2c(=O)oc(C(C)C(=O)O)cc2c1 (centres unmarked) [NM-3, 2-(8-hydroxy-6-methoxy-1-oxo-1H-2-benzopyran-3-yl) propionic acid]
Mean Survival Days (days ± S.D.) (colon 26 adenocarcinoma; [5]): 33.9 ± 13.6 days
T/C (%) (colon 26 adenocarcinoma; [5]): 102.7%
Mean Survival Days (days ± S.D.) (colon 26 adenocarcinoma; [6]): 23.5 ± 3.7 days
T/C (%) (colon 26 adenocarcinoma; [6]): 71.2%
Survival times versus control (colon 26 adenocarcinoma; NM-3 alone, 1 or 5 mg/kg): did not increase survival times
Tumor volume (Seg-1 tumors; NM-3 alone, day 15): 6.74±0.62 times original volume
Growth delay compared to IR alone group (Seg-1 tumors; [7]): 3 days
Growth delay compared to the control group (Seg-1 tumors; [7]): 14 days
Mean tumor volume compared with IR alone (Seg-1 tumors; NM-3 combined with IR (4 doses of 5 Gy), days 15, 17, 19, 21 and 23): significantly reduced mean tumor volume
% Tumor Growth Inhibition [1]: 24.1%
Cell cycle profiles ([2]; NM-3 alone, 50-200 μg/ml): only nominal effects
DEX-induced sub-G1 cells (apoptotic cells) ([2]; NM-3 with DEX 1 μM, 24 hours, concentration-dependent): increased DEX-induced sub-G1 cells
Animals with complete cure (LLC tumor): 9 of 10
% Tumor Growth Inhibition ([3]; NM-3 100 mg/kg I.P. daily alone): 26.67%
Final Tumor Ratio (V/Vo) +/− SEM ([3]; NM-3 100 mg/kg I.P. daily alone, 28 days): 4.70 ± 0.56 V/Vo
Mice with Complete Shrinkage ([3]; NM-3 100 mg/kg I.P. daily alone, n 9): 0
Tumor growth inhibition ([3]; NM-3 alone, daily dose of 10 mg/kg): no significant tumor growth inhibition
% Tumor Growth Inhibition [4]: 15.29%
Final Tumor Wt. (mg) +/− SEM [4]: 180.0 ± 18.13 mg
Mice with Complete Shrinkage ([4]; n 9): 0
